From ChEMBL document CHEMBL1153328, “5-Aminomethylbenzimidazoles as potent ITK antagonists” (Bioorg Med Chem Lett, 2009)

Biological target: T1, Tyrosine-protein kinase ITK/TSK (Homo sapiens, UniProt Q08881)
T1 sequence (Q08881 whole entry): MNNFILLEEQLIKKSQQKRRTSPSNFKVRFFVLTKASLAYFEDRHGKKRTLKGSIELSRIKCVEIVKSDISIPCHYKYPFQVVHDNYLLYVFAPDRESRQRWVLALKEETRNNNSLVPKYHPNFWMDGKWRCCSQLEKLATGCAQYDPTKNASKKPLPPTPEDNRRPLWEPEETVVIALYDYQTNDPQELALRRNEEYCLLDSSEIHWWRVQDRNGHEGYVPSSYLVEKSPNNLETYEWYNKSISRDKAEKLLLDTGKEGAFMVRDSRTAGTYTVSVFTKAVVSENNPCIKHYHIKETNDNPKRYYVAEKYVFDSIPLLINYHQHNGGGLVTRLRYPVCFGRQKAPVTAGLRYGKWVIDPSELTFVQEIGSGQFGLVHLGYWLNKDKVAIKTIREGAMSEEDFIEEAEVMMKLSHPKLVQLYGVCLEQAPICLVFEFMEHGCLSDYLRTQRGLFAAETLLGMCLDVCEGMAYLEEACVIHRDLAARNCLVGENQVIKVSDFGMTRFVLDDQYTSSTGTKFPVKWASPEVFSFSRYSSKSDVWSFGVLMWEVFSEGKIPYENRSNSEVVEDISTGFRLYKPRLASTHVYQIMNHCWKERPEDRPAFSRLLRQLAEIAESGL
Experiment: Binding affinity to ITK by DELFIA-based molecular assay

Compound	IC50 [nM]
C[C@@H](NCc1ccc2c(c1)nc(NC(=O)c1ccc(-c3cn[nH]c3)s1)n2CC(C)(C)O)C(C)(C)C	1
CC(C)(O)Cn1/c(=N/C(=O)c2ccc(-c3cn[nH]c3)s2)[nH]c2cc(CN3CCCCC3)ccc21	3
CN(Cc1ccc2c(c1)nc(NC(=O)c1ccc(-c3cn[nH]c3)s1)n2CC(C)(C)O)C1CCCCC1	2
CC(C)(O)Cn1/c(=N/C(=O)c2ccc(-c3cn[nH]c3)s2)[nH]c2cc(CN3CCOCC3)ccc21	2

Biological target: T1, Tyrosine-protein kinase ITK/TSK
Experiment: Inhibition of ITK in presence of 1 mM ATP

Compound	IC50 [nM]
C[C@@H](NCc1ccc2c(c1)nc(NC(=O)c1ccc(-c3cn[nH]c3)s1)n2CC(C)(C)O)C(C)(C)C	20
CC(C)(O)Cn1/c(=N/C(=O)c2ccc(-c3cn[nH]c3)s2)[nH]c2cc(CN3CCCCC3)ccc21	250
CN(Cc1ccc2c(c1)nc(NC(=O)c1ccc(-c3cn[nH]c3)s1)n2CC(C)(C)O)C1CCCCC1	160
CC(C)(O)Cn1/c(=N/C(=O)c2ccc(-c3cn[nH]c3)s2)[nH]c2cc(CN3CCOCC3)ccc21	220

Biological target: Insulin receptor (Homo sapiens, UniProt P06213)
Sequence (P06213 28-758 limits assumed): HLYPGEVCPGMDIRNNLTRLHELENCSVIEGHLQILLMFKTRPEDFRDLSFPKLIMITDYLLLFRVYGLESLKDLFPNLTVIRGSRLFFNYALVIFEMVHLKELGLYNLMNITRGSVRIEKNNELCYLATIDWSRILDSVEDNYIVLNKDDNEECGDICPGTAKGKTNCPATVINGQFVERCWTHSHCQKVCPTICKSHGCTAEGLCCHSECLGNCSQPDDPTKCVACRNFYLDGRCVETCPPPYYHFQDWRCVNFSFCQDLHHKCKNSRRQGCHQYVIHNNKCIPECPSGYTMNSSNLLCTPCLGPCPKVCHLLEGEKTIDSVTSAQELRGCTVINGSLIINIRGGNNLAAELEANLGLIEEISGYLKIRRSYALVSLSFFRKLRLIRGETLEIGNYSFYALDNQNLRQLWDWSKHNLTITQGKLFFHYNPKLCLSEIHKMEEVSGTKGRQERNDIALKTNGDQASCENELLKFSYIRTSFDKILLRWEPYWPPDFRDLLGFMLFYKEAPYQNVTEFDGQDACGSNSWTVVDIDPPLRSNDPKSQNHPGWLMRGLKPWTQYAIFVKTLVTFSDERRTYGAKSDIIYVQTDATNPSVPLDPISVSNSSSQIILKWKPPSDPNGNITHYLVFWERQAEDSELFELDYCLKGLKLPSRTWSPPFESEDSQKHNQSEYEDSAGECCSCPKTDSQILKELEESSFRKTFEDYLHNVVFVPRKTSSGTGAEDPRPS
Sequence (P06213 763-1382 limits assumed): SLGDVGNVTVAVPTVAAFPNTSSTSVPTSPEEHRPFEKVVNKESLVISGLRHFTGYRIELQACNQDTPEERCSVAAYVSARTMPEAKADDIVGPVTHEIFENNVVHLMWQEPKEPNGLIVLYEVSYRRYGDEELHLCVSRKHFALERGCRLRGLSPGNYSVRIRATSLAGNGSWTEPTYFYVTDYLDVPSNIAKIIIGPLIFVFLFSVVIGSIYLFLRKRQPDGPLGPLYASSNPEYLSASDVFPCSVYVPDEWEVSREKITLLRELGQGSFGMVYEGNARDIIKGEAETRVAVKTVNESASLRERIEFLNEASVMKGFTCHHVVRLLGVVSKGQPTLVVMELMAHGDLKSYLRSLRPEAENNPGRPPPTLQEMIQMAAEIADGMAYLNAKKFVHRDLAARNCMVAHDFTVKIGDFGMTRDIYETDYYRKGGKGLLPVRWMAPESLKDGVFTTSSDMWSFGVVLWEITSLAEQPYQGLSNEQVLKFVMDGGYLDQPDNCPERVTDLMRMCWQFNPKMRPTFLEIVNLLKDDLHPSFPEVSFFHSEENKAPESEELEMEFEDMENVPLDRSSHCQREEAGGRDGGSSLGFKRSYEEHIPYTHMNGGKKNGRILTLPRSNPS
Experiment: Inhibition of IRK

Compound	IC50 [nM]
CN(Cc1ccc2c(c1)[nH]/c(=N\C(=O)c1ccc(-c3cn[nH]c3)s1)n2CC(C)(C)O)c1ccccc1	5500
CC(C)(O)Cn1/c(=N/C(=O)c2ccc(-c3cn[nH]c3)s2)[nH]c2cc(CNCc3ccccc3)ccc21	480
CC(C)CNCc1ccc2c(c1)nc(NC(=O)c1ccc(-c3cn[nH]c3)s1)n2CC(C)(C)O	360
Cc1ncc(-c2ccc(C(=O)/N=c3\[nH]c4cc(CN(C)C5CCCCC5)ccc4n3CC(C)(C)O)s2)o1	350
CNCc1ccc2c(c1)[nH]/c(=N\C(=O)c1ccc(-c3cn[nH]c3)s1)n2CC(C)(C)O	500
C[C@@H](NCc1ccc2c(c1)nc(NC(=O)c1ccc(-c3cn[nH]c3)s1)n2CC(C)(C)O)C(C)(C)C	93
CC(C)(O)Cn1/c(=N/C(=O)c2ccc(-c3cn[nH]c3)s2)[nH]c2cc(CN3CCCCC3)ccc21	550
CN(Cc1ccc2c(c1)nc(NC(=O)c1ccc(-c3cn[nH]c3)s1)n2CC(C)(C)O)C1CCCCC1	480
CN(C)CCN(C)Cc1ccc2c(c1)[nH]/c(=N\C(=O)c1ccc(-c3cn[nH]c3)s1)n2CC(C)(C)O	390
CN(Cc1cccnc1)Cc1ccc2c(c1)[nH]/c(=N\C(=O)c1ccc(-c3cn[nH]c3)s1)n2CC(C)(C)O	310
CC(C)(O)Cn1/c(=N/C(=O)c2ccc(-c3cn[nH]c3)s2)[nH]c2cc(CN3CCOCC3)ccc21	320

Biological target: T1, Tyrosine-protein kinase ITK/TSK
Experiment: Antagonist activity at human ITK expressed in BTK deficient DT40 cells assessed as inhibition of B cell receptor-stimulated calcium influx
Format: functional, cell-based

Compound	IC50 [nM]
C[C@@H](NCc1ccc2c(c1)nc(NC(=O)c1ccc(-c3cn[nH]c3)s1)n2CC(C)(C)O)C(C)(C)C	3
CC(C)(O)Cn1/c(=N/C(=O)c2ccc(-c3cn[nH]c3)s2)[nH]c2cc(CN3CCCCC3)ccc21	11
CN(Cc1ccc2c(c1)nc(NC(=O)c1ccc(-c3cn[nH]c3)s1)n2CC(C)(C)O)C1CCCCC1	13
CC(C)(O)Cn1/c(=N/C(=O)c2ccc(-c3cn[nH]c3)s2)[nH]c2cc(CN3CCOCC3)ccc21	13

Test system: T-cell
Experiment: Inhibition of anti-CD3 and anti-CD28 monoclonal antibody-stimulated IL2 secretion in human CD4+ T cells
Format: functional, cell-based

Compound	IC50 [nM]
CN(C)Cc1ccc2c(c1)[nH]/c(=N\C(=O)c1ccc(-c3cn[nH]c3)s1)n2CC(C)(C)O	130
CC(C)(O)Cn1/c(=N/C(=O)c2ccc(-c3cn[nH]c3)s2)[nH]c2cc(CNCc3ccccc3)ccc21	37
Cc1ncc(-c2ccc(C(=O)/N=c3\[nH]c4cc(CNc5ccccc5)ccc4n3CC(C)(C)O)s2)o1	460
CC(C)CNCc1ccc2c(c1)nc(NC(=O)c1ccc(-c3cn[nH]c3)s1)n2CC(C)(C)O	86
Cc1ncc(-c2ccc(C(=O)/N=c3\[nH]c4cc(CN(C)C5CCCCC5)ccc4n3CC(C)(C)O)s2)o1	230
C[C@@H](NCc1ccc2c(c1)nc(NC(=O)c1ccc(-c3cn[nH]c3)s1)n2CC(C)(C)O)C(C)(C)C	50
CC(C)(O)Cn1/c(=N/C(=O)c2ccc(-c3cn[nH]c3)s2)[nH]c2cc(CN3CCCCC3)ccc21	120
CN(Cc1ccc2c(c1)nc(NC(=O)c1ccc(-c3cn[nH]c3)s1)n2CC(C)(C)O)C1CCCCC1	59
CN(C)CCN(C)Cc1ccc2c(c1)[nH]/c(=N\C(=O)c1ccc(-c3cn[nH]c3)s1)n2CC(C)(C)O	150
CN(Cc1cccnc1)Cc1ccc2c(c1)[nH]/c(=N\C(=O)c1ccc(-c3cn[nH]c3)s1)n2CC(C)(C)O	91
CC(C)(O)Cn1/c(=N/C(=O)c2ccc(-c3cn[nH]c3)s2)[nH]c2cc(CN3CCOCC3)ccc21	230
